Data as given in patent US12226410B2, “Methods for enhancing cellular clearance of pathological molecules via activation of the cellular protein ykt6” (NORTHWESTERN UNIVERSITY, priority 2019, dated 2025).

Key:
a-syn = assay: Sequential extraction/western blot of a-syn in FTI-treated A53T iPSn; format: cell-based, human; details: 5 nM, 7d
Method: (§1) FIGS. 6A, 6B, 6C, 6D, 6E, 6F, and 6G. FTIs enhance lysosomal GCase activity and reduce pathological a-syn by blocking ykt6 farnesylation. 6A) GCase activity in FTI-treated A53T iPSn at d80 (LNK-754 5 nM, 5d). 6B) GCase activity in FTI-treated A53T iPSn expressing empty vector (vect) or ykt6-CS (n=4). 6C) Lysosomal GCase activity was assessed in FTI-treated SHSY5Y cells transfected with scrambled or ykt6 shRNA (KD) (n=3). 6D) Quantification of Triton X-100 soluble (T-sol) a-syn by western blot from FTI-treated A53T iPSn (5 nM, 7d). *, non-specific band. (n=3). 6E) Quantification of insoluble a-syn from A53T iPSn as in D (n=3). 6F) Insoluble a-syn in FTI-treated H4 cells (5 nM, 5 days) transfected with either scrambled or ykt6 shRNA (n=6). 6G) Neuron viability was assessed in FTI-treated A53T iPSn (5 nM, 14d from d86-d100) by quantification of neurofilament protein. Right, neuron viability in FTI-treated A53T iPSn expressing empty vector or ykt6-CS (n=4). Values are the mean+/−SEM, *p<0.05, **p<0.01, ***p<0.001.
Sequential biochemical extraction for the analysis of pathological a-synuclein. […] Protein concentration was measured by BCA assay (Pierce). […]
Western blot analysis. […] The blots were washed as before and scanned/analyzed using an Odyssey infrared imaging system with Image Studio Software. […]

A53T iPSn = assay: Measurement of neuron viability (neurofilament); format: cell-based, human; details: A53T iPSn analyzed at day 100; 5 nM, 14d
Method: as §1, with “Right, neuron viability in FTI-treated A53T iPSn expressing empty vector or ykt6-CS (n=4). Values are the mean+/−SEM, *p<0.05, **p<0.01, ***p<0.001.” left out
Measurement of neuron viability. iPSC-neurons were seeded on a PDL/laminin coated 96 well plate and analyzed and treated with either lentivirus expressing ykt6 CS vs empty vector, or DMSO vs 5 nM FTI (LNK-754) for 14 days. […] Neurofilament intensity was determined using Image Studio software (version 2.1 Li-cor) and normalized to cell volume. Replicates represent values from four individual culture wells and were analyzed by Student's T-test using GraphPad Prism software V 6.0. […]

## C#Cc1cccc(-c2cc(=O)n(C)c3ccc([C@](O)(c4ccc(Cl)cc4)c4cncn4C)cc23)c1 [LNK-754]
a-syn
  soluble and insoluble levels of a-syn (C20, syn303): reduced
A53T iPSn
  neuron viability: improved neuron viability
